Laboratory results taken from patent US10071998B2, “Iminothiadiazine dioxides bearing an amine-linked substituent as BACE inhibitors, compositions, and their use” (Merck Sharp & Dohme Corp., priority 2015, dated 2018).
Read-outs that look alike come from different tables or passages of the source.

How the values were obtained:
[1] = molecular target: Recombinant human soluble BACE-1 catalytic domain (Homo sapiens (Human), UniProt P56817); assay: BACE-1 Ki Assay (BACE-1 HTRF FRET Assay); format: biochemical
Protocol: Assay 1: BACE-1 Ki Assay (BACE-1 HTRF FRET Assay)
The compounds of the invention were assessed for their ability to inhibit BACE-1 using the following assay.
The following reagents were used in this assay. Na^+-Acetate pH 5.0; 1% Brij-35; Glycerol; Dimethyl Sulfoxide (DMSO); Recombinant human soluble BACE-1 catalytic domain (>95% pure); APP Swedish mutant peptide substrate (QSY7-APP^swe-Eu): QSY7-EISEVNLDAEFC-Europium-amide.
A homogeneous time-resolved FRET assay can be used to determine IC50 values for inhibitors of the soluble human BACE-1 catalytic domain. This assay monitors the increase of 620 nm fluorescence that resulted from BACE-1 cleavage of an APPswedish APP^swe mutant peptide FRET substrate (QSY7-EISEVNLDAEFC-Europium-amide). This substrate contains an N-terminal QSY7 moiety that serves as a quencher of the C-terminal Europium fluorophore (620 nm Em). In the absence of enzyme activity, 620 nm fluorescence is low in the assay and increased linearly over 3 hours in the presence of uninhibited BACE-1 enzyme. Inhibition of BACE-1 cleavage of the QSY7-APP^swe-Eu substrate by inhibitors is manifested as a suppression of 620 nm fluorescence.
Varying concentrations of inhibitors at 3× the final desired concentration in a volume of 10 ul are preincubated with purified human BACE-1 catalytic domain (3 nM in 10 μl) for 30 minutes at 30° C. in reaction buffer containing 20 mM Na-Acetate pH 5.0, 10% glycerol, 0.1% Brij-35 and 7.5% DSMO. Reactions are initiated by addition of 10 μl of 600 nM QSY7-APP^swe-Eu substrate (200 nM final) to give a final reaction volume of 30 μl in a 384 well Nunc HTRF plate. The reactions are incubated at 30° C. for 1.5 hours. The 620 nm fluorescence is then read on a Rubystar HTRF plate reader (BMG Labtechnologies) using a […] delay followed by a 400 millisecond acquisition time window. Inhibitor IC50 values are derived from non-linear regression analysis of concentration response curves. Ki values are then calculated from IC50 values using the Cheng-Prusoff equation using a previously determined […] of 8 μM for the QSY7-APP^swe-Eu substrate at BACE-1. The example compounds of the invention were measured in this assay.

[2] = molecular target: purified human autoBACE-2 (Homo sapiens (Human), UniProt Q9Y5Z0); assay: BACE-2 Assay (BACE-HTRF assay); format: biochemical; details: Table 1; Ki calculated from IC50 with Cheng-Prusoff equation; read-out: BACE2 Ki
Protocol: Inhibitor IC50s, at purified human autoBACE-2 are determined in a time-resolved endpoint proteolysis assay that measures hydrolysis of the QSY7-EISEVNLDAEFC-Eu-amide FRET peptide substrate (BACE-HTRF assay). BACE-mediated hydrolysis of this peptide results in an increase in relative fluorescence (RFU) at 620 nm after excitation with 320 nm light. Inhibitor compounds, prepared at 3× the desired final concentration in 1× BACE assay buffer (20 mM sodium acetate pH 5.0, 10% glycerol, 0.1% Brij-35) supplemented with 7.5% DMSO are pre-incubated with an equal volume of autoBACE-2 enzyme diluted in 1×BACE assay buffer (final enzyme concentration 1 nM) in black 384-well NUNC plates for 30 minutes at 30° C. The assay is initiated by addition of an equal volume of the QSY7-EISEVNLDAEFC-Eu-amide substrate (200 nM final concentration, Km=8 μM […] for autoBACE-2) prepared in 1×BACE assay buffer supplemented with 7.5% DMSO and incubated for 90 minutes at 30° C. DMSO is present at 5% final concentration in the assay. Following laser excitation of sample wells at 320 nm, the fluorescence signal at 620 nm is collected for 400 ms following a 50 μs delay on a RUBYstar HTRF plate reader (BMG Labtechnologies). Raw RFU data is normalized to maximum (1.0 nM BACE/DMSO) and minimum (no enzyme/DMSO) RFU values. IC50 values are determined by nonlinear regression analysis (sigmoidal dose response, variable slope) of percent inhibition data with minimum and maximum values set to 0 and 100 percent respectively. Similar IC50s are obtained when using raw RFU data. The Ki values are calculated from the IC50 using the Cheng-Prusoff equation.

[3] = Table 3, comparator compounds of WO2011044181, read-out: BACE-1 Ki Nm
[4] = Table 1, Ki calculated from IC50 with Cheng-Prusoff equation, read-out: BACE1 Ki

Recombinant human soluble BACE-1 catalytic domain, sequence (P56817 75-416): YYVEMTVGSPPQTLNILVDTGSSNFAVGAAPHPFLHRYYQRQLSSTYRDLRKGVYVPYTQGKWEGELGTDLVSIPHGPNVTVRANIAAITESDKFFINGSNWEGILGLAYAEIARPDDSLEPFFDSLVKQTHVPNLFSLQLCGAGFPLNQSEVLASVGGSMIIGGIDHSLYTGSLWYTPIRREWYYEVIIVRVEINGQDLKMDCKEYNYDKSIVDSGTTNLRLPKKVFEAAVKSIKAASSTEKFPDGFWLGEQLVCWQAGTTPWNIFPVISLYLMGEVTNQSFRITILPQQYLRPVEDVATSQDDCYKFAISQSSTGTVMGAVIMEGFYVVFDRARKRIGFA
purified human autoBACE-2, sequence (Q9Y5Z0 63-473): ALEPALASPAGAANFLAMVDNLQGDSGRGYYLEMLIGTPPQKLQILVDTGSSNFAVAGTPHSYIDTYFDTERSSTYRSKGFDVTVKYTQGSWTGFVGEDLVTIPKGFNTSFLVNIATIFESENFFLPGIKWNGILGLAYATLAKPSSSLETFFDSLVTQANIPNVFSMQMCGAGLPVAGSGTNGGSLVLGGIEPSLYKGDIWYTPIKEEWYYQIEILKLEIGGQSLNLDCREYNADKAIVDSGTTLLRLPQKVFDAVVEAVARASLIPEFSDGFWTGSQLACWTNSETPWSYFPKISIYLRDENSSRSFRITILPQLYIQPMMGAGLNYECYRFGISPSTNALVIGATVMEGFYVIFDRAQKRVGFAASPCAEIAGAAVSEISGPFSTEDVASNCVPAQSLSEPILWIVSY

Ki [1, 3] [nM] | Ki [1, 4] [nM] | Ki [2] [nM] | Compound
42 |  |  | CN1C(=N)N[C@](C)(c2cc(Nc3cccc4c3OC(F)(F)O4)ccc2F)CS1(=O)=O [103 (Scheme 18), reference compound]
 | 128 | 43.1 | CN1C(=N)N[C@](C)(c2cc(N[C@H]3CCCc4cc(Br)cnc43)ccc2F)CS1(=O)=O [Example 20, (R)-5-(5-(((S)-3-bromo-5,6,7,8-tetrahydroquinolin-8-yl)amino)-2-fluorophenyl)-3-imino-2,5-dimethyl-1,2,4-thiadiazinane 1,1-dioxide]
508 |  |  | CN1C(=N)N[C@](C)(c2cccc(Nc3ncccc3C#N)n2)CS1(=O)=O [164 (Table XXI), reference compound]
69 |  |  | COc1ccccc1Nc1cccc([C@]2(C)CS(=O)(=O)N(C)C(=N)N2)c1 [103a (Table IXa), reference compound]
 | 10.2 | 16.6 | CN1C(=N)N[C@](C)(c2cc(N[C@H]3CCc4cc(Cl)ccc43)ccc2F)CS1(=O)=O [Example 17, (R)-5-(5-(((S)-5-chloro-2,3-dihydro-1H-inden-1-yl)amino)-2-fluorophenyl)-3-imino-2,5-dimethyl-1,2,4-thiadiazinane 1,1-dioxide]
41 |  |  | COc1cccnc1Nc1cc([C@]2(C)CS(=O)(=O)N(C)C(=N)N2)ccn1 [166 (Table XXI), reference compound]
 | 41.2 | 124 | CN1C(=N)N[C@](C)(c2cc(N[C@@H]3CCc4ncc(Cl)cc43)ccc2F)CS1(=O)=O [Example 15, (R)-5-(5-(((R)-3-chloro-6,7-dihydro-5H-cyc1openta[b]pyridin-5-yl)amino)-2-fluorophenyl)-3-imino-2,5-dimethyl-1,2,4-thiadiazinane 1,1-dioxide]
 | 1.2 | 0.22 | CN1C(=N)N[C@](C)(c2cc(Nc3nccc4cc(Cl)cnc34)ccc2F)CS1(=O)=O [Example 1, 3-chloro-N-{4-fluoro-3-[(5R)-3-imino-2,5-dimethyl-1,1-dioxido-1,2,4-thiadiazinan-5-yl]phenyl}-1,7-naphthyridin-8-amine]

Continued, compound first:

Compound | Ki [1, 3] [nM] | Ki [1, 4] [nM] | Ki [2] [nM]
CN1C(=N)N[C@](C)(c2cccc(Nc3ccccc3C#N)n2)CS1(=O)=O [103b (Table IXa), reference compound] | 514 |  | 
CN1C(=N)N[C@](C)(c2cc(Nc3ncnc4cc(Br)cnc34)ccc2F)CS1(=O)=O [Example 3, 7-bromo-N-{4-fluoro-3-[(5R)-3-imino-2,5-dimethyl-1,1-dioxido-1,2,4-thiadiazinan-5-yl]phenyl}pyrido[3,2-d]pyrimidin-4-amine] |  | 2.8 | 0.81
CN1C(=N)N[C@](C)(c2cc(N[C@@H]3CCc4cc(C#N)cnc43)ccc2F)CS1(=O)=O [Example 19, (R)-7-((4-fluoro-3-((R)-3-imino-2,5-dimethyl-1,1-dioxido-1,2,4-thiadiazinan-5-yl)phenyl)amino)-6,7-dihydro-5H-cyclopenta[b]pyridine-3-carbonitrile] |  | 81 | 42.6
COc1cccnc1Nc1cccc([C@]2(C)CS(=O)(=O)N(C)C(=N)N2)n1 [165 (as listed on page 224), reference compound] | 2590 |  | 
COc1cnc2c(Nc3ccc(F)c([C@]4(C)CS(=O)(=O)N(C)C(=N)N4)c3)ncnc2n1 [Example 13, N-{4-fluoro-3-[(5R)-3-imino-2,5-dimethyl-1,1-dioxido-1,2,4-thiadiazinan-5-yl]phenyl}-7-methoxypteridin-4-amine] |  | 10.6 | 15.4
COc1ccccc1Nc1cc([C@]2(C)CS(=O)(=O)N(C)C(=N)N2)ccn1 [167 (Table XXI), reference compound] | 344 |  | 
CN1C(=N)N[C@](C)(c2cc(N[C@@H]3CCc4ncc(C(F)(F)F)cc43)ccc2F)CS1(=O)=O [Example 16, (R)-5-(2-fluoro-5-(((R)-3-(trifluoromethyl)-6,7-dihydro-5H-cyclopenta[b]pyridin-5-yl)amino)phenyl)-3-imino-2,5-dimethyl-1,2,4-thiadiazinane 1,1-dioxide] |  | 57.3 | 242
COc1cnc2c(Nc3cc([C@]4(C)CS(=O)(=O)N(C)C(=N)N4)c(F)cn3)nccc2c1 [Example 5, N-{5-fluoro-4-[(5R)-3-imino-2,5-dimethyl-1,1-dioxido-1,2,4-thiadiazinan-5-yl]pyridin-2-yl}-3-methoxy-1,7-naphthyridin-8-amine] |  | 16.2 | 4.5
COc1ccccc1Nc1cccc([C@]2(C)CS(=O)(=O)N(C)C(=N)N2)n1 [162 (Scheme 40), reference compound] | 3760 |  | 
CN1C(=N)N[C@](C)(c2cc(Nc3nccc4cc(Br)cnc34)ccc2F)CS1(=O)=O [Example 2, 3-bromo-N-{4-fluoro-3-[(5R)-3-imino-2,5-dimethyl-1,1-dioxido-1,2,4-thiadiazinan-5-yl]phenyl}-1,7-naphthyridin-8-amine] |  | 1.5 | 0.38
CN1C(=N)N[C@](C)(c2cc(N[C@H]3CCc4cc(C#N)cnc43)ccc2F)CS1(=O)=O [Example 18, (S)-7-((4-fluoro-3-((R)-3-imino-2,5-dimethyl-1,1-dioxido-1,2,4-thiadiazinan-5-yl)phenyl)amino)-6,7-dihydro-5H-cyclopenta[b]pyridine-3-carbonitrile] |  | 3.1 | 22.3
CN1C(=N)N[C@](C)(c2cccc(Nc3cccc4c3OC(F)(F)O4)n2)CS1(=O)=O [163 (Table XXI), reference compound] | 4700 |  | 
